From PMC11003484 (Journal of Enzyme Inhibition and Medicinal Chemistry, 2023)
Structures can show the parent of a compound that is named as a salt.

Experiments:
[1] = molecular target: T1, HEV helicase (Hepatitis E virus genotype 1, UniProt P33424); assay: biochemical; type: biochemical
T1 construct: The HEV helicase (735 bp) was amplified from the HEV (genotype 1; AF444002.1) cDNA clone; made in house; host or cells: E. coli BL21(DE3), pET28a; solubilised from inclusion bodies with NLS
Description: (§1) The HEV helicase (735 bp) was amplified from the HEV (genotype 1; accession no. AF444002.1) cDNA clone pSK-HEV-2[23]^,[25] using the forward and reverse primers sets (5′agcc|atatgggttgccgtgtgacc3′ and 5′gtgc|tcgagttaaaagaagttgttcac3′). Following standard laboratory procedures, the amplified gene was cloned in the pET28a vector between NdeI and Xho I restriction sites. The cloning was verified using colony PCR using Nde I and Xho I (New England BioLabs, Ipswich, MA) double digestion and DNA sequencing. The recombinant plasmid was further transformed to BL21(DE3) using the routine protocol for expressing HEV helicase. The transformed recombinant BL21 cells were expanded until the culture’s optical density (OD600 nm) reached 0.6 before being induced with 0.4 mM IPTG (Sigma Aldrich, St. Louis, MO) at 26 °C for 4 h. The protein solubilisation was carried out as described previously. The Immobilised Metal Affinity Chromatography (IMAC) was used to purify the solubilised protein, and the protein was eluted in a buffer containing 10 mM Tris–Cl (pH 8.0), (Sigma Aldrich), 100 mM NaCl (Sigma Aldrich), 250 mM imidazole, and 0.1% N-lauryl Sarcosine (NLS; Sigma Aldrich). Further, the buffer of purified protein was exchanged with 10 mM Tris–Cl (pH 8.0), 100 mM NaCl, and 0.08% NLS before proceeding with enzyme assays.
The NTPase activity of the HEV helicase enzyme was performed using a colorimetric-based Malachite green test[27]. The assay followed the manufacturer’s instructions The malachite green assay was performed as per the manufacturer’s protocol (Sigma Aldrich) cat no MAK307-1KT. The assay operates on the phosphate release from the reaction between malachite green and molybdate (AM/MG reagent) as the basis for complexation. […] The absorbance was measured on plate reader and a standard curve was generated using known concentrations of phosphate ranging from 0 to 44 uM to correlate absorbance with released phosphate concentration. The absorbance was plotted on Y-axis against the phosphate concentration on X-axis, and a straight-line equation (Y = 0.02182 * X + 0.04158) was determined using linear regression in GraphPad Prism version 9.0 (Boston, MA). The graphs were plotted as a function of the concentration of phosphate released. The effects of pH, temperature, enzyme concentration, and substrate concentration on helicase enzyme activity were studied to optimise enzyme activity.
Based on their docking score, hydrogen bonds, and protein–ligand interaction, the five selected compounds from virtual screening were tested for their ability to suppress NTPase activity. The putative inhibitors’ concentrations ranged from 0 to 10 µM during the optimisation-focused inhibition tests on the purified protein’s NTPase activity. […] The working reagent was added after the reaction mixture had been incubated at RT for 10 min, and the absorbance was measured at 600 nm.
(§2) All the experiments were performed in triplicates, and the graphs were plotted using GraphPad Prism software (Boston, MA).

[2] = molecular target: T1, HEV helicase; assay: Double-stranded RNA unwinding activity / inhibition assay (fluorescence); type: biochemical; details: dsRNA unwinding, purified helicase, RT
Description: as §1, §2

[3] = tested on: HEV replication (ORF2 expression); assay: microbe, parasite or virus in culture; type: cell-based, Hepatitis E Virus
Description: (§3) For transfection, pSHEV-3 (cDNA clone of HEV genotype 3; accession no. AY575859.1) was linearised using Xba I (New England BioLabs). The helicase region of GT1 and GT3 share greater than 90% sequence homology Sub-genomic HEV carrying luciferase gene (accession number JQ679013) was linearised for replicon assay with MluI. The linearised DNA was subjected to in vitro transcription, as mentioned previously[26]^,[36], and the RNA was transfected in Huh7 cells using Lipofectamine 3000 (Invitrogen, Carlsbad, CA). Briefly, a day before transfection, approximately 0.8 × 10^6 cells were seeded in each well of a six-well plate, and for HEV replicon assay, ∼5–7 × 10[3] cells were seeded in each well of 96 plate. After 24 h, the media was removed, the cells were washed twice with Opti-MEM media (Gibco™, Grand Island, NY), and the transfection mixture was prepared as mentioned earlier[25]^,[26]. The cells were incubated with a transfection mixture for 6–8 h at 37 °C.
For IFA, the cells were grown on a 96-well plate and transfected using Lipofectamine, as mentioned above. […] The cells were incubated for 4–5 d, and subsequently, the media was removed, and the cells were carefully washed twice with 1X PBS. The cells were fixed with 4% paraformaldehyde (PFA) and incubated for 5–10 min at RT. After fixing, the cells were again washed with 1× PBS, and the permeabilisation was performed using PBS with 0.1% Triton-X and 0.1% BSA (Bovine Serum Albumin, HiMedia, Mumbai, India). The blocking was performed using 3% BSA for 1 h at RT. After blocking, the cells were incubated with anti-HEV-ORF2 (Dilution, 1:400) antibody against the HEV capsid protein for 1 h at RT. The cells were washed thrice with PBS-T (Tween-20, 0.05%, Sigma Aldrich). The Goat-Anti-Rabbit Alexa Fluor 488 (Thermo Fisher) was used as a secondary antibody, and the cells were incubated for 30 min in the dark. The cells were washed thrice with PBS-T and stained with DAPI (Invitrogen™). […]

[4] = tested on: Huh7 cells
Protocol: To study the cell viability, Huh7 cells were grown in Dulbecco’s Modified Eagle Medium (DMEM, Gibco™, Life Technologies, Grand Island, NY), supplemented with 10% Foetal Bovine Serum (FBS, Gibco™, Qualified, Brazil origin). Further, Huh7 cells were seeded in a 96-well plate (∼0.7 × 10^4 cells/well) and incubated at 37 °C in a humidified 5% CO2 incubator. […] After 4 d, the MTT (3-dimethylthiazol-2-yl-diphenyl tetrazolium bromide) assay was performed per the manufacturer’s protocol (Himedia Laboratories, Thane, India). Cell viability percentage was calculated by comparing treated cells with untreated cells.

[5] = tested on: p6 HEV-Luc Replicon; assay: HEV replicon (p6 HEV-Luc) luciferase assay in Huh7 cells; type: cell-based; details: Hepatitis E virus, Huh-7, 72 h, read-out: IC50 HEV replicon luciferase activity
Description: as §3
Following transfection, the cells were incubated with inhibitors for 72 h at 37 °C in a CO2 incubator. […] The cells were then lysed according to the manufacturer’s protocol, and the luminescence was recorded on Tecan Spark® (Tecan Trading AG, Switzerland) multimode plate reader. In replicon, the luminescence was normalised w.r.t to uninfected (0%) and untreated cells (100%).

[6] = read-out: IC50 (µM) NTPase activity

T1 sequence (P33424 960-1204): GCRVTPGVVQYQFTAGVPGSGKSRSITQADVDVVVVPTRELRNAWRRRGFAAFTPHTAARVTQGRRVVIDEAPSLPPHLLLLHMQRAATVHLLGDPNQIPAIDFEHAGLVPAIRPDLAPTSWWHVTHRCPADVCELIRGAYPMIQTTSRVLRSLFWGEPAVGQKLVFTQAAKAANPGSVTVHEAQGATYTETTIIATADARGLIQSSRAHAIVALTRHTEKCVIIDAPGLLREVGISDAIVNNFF

| SMILES | IC50 [1, 6] [µM] | IC50 [2] [µM] | other results |
| --- | --- | --- | --- |
| COc1cccc2c1C(=O)c1c(O)c3c(c(O)c1C2=O)C[C@@](O)(C(C)=O)C[C@@H]3O[C@H]1C[C@H](N)[C@H](O)[C@H](C)O1 [Daunorubicin HCL, daunorubicin HCL] | 7.66 | 8.25 |  |
| O=C(O)c1cc(=O)c2c(OCC(O)COc3cccc4oc(C(=O)O)cc(=O)c34)cccc2o1 [Disodium cromoglycate, disodium cromoglycate] | 14.8 | 39.8 |  |
| Nc1nc2c(ncn2C2OC(COP(=O)(O)OP(=O)(O)OP(=O)(O)O)C(O)C2O)c(=O)[nH]1 (centres unmarked) [GTP] |  |  | Km ([1]; read-out: Km (substrate, NTPase activity), GTP 0 to […], Michaelis-Menten fit): 350 µM |
| CN1c2c(nc(N)[nH]c2=O)NC[C@@H]1CNc1ccc(C(=O)N[C@@H](CCC(=O)O)C(=O)O)cc1 [Levomefolic acid, 5-methyltetrahydrofolate (levomefolic acid)] |  | 13.9 | IC50 [1]: 3.65 µM |
| CN(Cc1cnc2nc(N)nc(N)c2n1)c1ccc(C(=O)N[C@@H](CCC(=O)O)C(=O)O)cc1 [Methotrexate] |  |  | HEV replication inhibition (IFA) ([3]; 50 nM Mtx): ~81%; fluorescence level (ORF2, IFA) ([3]; 100 nM methotrexate, untreated 100%): ~6%; inhibition at 0.1 µM ([3]; Hepatitis E virus, Huh-7, read-out: inhibition of HEV replication (IFA)): ~94%; Cytotoxicity (MTT assay) [4]: < 100 nM; IC50 [5]: 0.0731 ± 0.0127 µM |
| C[C@]12C=CC(=O)C=C1CC[C@@H]1[C@@H]2[C@@H](O)C[C@@]2(C)[C@H]1CC[C@]2(O)C(=O)CO [Prednisolone] | 4.2 | 25.8 |  |
